pIC50: −log10 of the molar value. Where two headings read alike, the source gives them in different places.
Legend:
FLT3 = FLT3 degradation assay (western blot, MV-411 cells); assay type: cell-based, human
Procedure: (§1) MV-411 cells were cultured with medium (IMDM) prior to use. Cells were then incubated with a variety of concentrations of compound. After incubation, the cells were collected and lysed. The protein concentration was determined by BCA protein assay kit from Thermo (23227). The FLT3 protein level was determined by western blots, using anti-human FLT3 monoclonal antibody from CST (3462S). Proteins were loaded into each well of the pre-casting gels and subjected to electrophoretic separation by SDS-PAGE. The protein resolved by SDS-PAGE were transferred to PVDF, blocked by 5% skim milk, and probed with anti-human FLT3 antibody or -actin antibody from CST (3700S), using standard western blotting procedure.

HPK1 [1] = target: T1, HPK1 (Homo sapiens (Human), UniProt Q92918); test: HPK1 enzyme inhibition assay (ADP-Glo); assay type: biochemical
Procedure: HPK1 Enzyme Inhibition Assay
The compound was dissolved in 100% DMSO at the concentration of 10 mM. The HPK1 protein was purchased from Signal Chem (M23-11G-10). 2.5 μL per well of 2×HPK1 protein was added to assay plate containing the test compound, centrifuged at 1500 rpm for 1 minute, and then incubated at 25° C. for 60 minutes. MBP protein was purchased from Signal Chem (M42-51N) and ATP was purchased from Promega (V9102). The two were added 2.5 μL per well mixture of 2×MBP (0.2 ug/ul) and ATP (20 μM), centrifuged at 1500 rpm for 1 minute, then incubated at 25° C. for 60 minutes. Then added 5 μL of ADP-Glo from Promega (V9102) to the assay plate and depleted the unconsumed ATP for 60 minutes. Then centrifuged at 1500 rpm for 1 minute and incubated at 25° C. for 60 minutes. Finally, 10 μL of the kinase assay reagent from Promega (V9102) was added to the assay plate to convert ADP to ATP, centrifuged at 1500 rpm for 1 minute, incubate at 25° C. for 40 minutes. After 40 minutes incubation, the […] was determined. Based on the results, the IC50 value of the compound was calculated.
Target sequence in this assay (Q92918 1-346 limits assumed): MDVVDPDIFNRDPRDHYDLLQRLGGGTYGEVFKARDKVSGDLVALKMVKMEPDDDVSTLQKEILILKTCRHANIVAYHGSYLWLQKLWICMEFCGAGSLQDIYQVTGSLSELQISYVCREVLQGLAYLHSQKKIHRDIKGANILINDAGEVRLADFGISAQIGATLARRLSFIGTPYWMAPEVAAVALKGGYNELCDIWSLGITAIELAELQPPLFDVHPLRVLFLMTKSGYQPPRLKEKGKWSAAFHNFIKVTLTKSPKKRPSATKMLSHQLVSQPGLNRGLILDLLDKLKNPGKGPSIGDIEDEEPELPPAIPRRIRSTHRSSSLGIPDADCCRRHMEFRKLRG

FLT3-ITD = FLT3-ITD (Homo sapiens, UniProt P36888, ITD); test: FLT3-ITD enzyme inhibition assay; assay type: biochemical
Chain of FLT3-ITD (P36888 whole entry, looked up, change not shown): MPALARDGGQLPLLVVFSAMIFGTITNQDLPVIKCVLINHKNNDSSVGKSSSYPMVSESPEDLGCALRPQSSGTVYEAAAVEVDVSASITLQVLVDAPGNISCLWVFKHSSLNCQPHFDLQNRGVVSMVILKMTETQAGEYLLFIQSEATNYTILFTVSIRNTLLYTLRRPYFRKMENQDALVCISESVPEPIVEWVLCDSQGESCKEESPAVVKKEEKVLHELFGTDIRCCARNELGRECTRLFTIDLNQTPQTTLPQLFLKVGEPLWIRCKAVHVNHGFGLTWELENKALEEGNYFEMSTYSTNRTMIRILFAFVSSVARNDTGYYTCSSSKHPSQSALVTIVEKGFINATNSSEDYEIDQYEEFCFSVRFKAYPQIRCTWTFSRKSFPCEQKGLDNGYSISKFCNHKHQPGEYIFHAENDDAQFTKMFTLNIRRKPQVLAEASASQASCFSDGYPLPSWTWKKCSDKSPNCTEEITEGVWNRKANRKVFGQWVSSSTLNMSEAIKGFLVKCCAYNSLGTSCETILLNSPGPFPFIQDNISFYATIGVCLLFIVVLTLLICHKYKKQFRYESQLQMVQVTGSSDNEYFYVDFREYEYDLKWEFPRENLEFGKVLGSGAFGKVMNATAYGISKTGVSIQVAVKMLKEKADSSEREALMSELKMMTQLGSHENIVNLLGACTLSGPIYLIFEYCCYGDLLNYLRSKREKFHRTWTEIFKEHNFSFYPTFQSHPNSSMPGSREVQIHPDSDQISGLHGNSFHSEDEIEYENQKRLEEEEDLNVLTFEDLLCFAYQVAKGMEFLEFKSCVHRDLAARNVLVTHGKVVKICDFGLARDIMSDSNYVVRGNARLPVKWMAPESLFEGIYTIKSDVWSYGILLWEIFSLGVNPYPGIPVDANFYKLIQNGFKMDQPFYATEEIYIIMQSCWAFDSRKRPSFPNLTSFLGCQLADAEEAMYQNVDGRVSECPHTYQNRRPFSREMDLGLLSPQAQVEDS
Procedure: FLT3-ITD Enzyme Inhibition Assay
The compound was dissolved in 100% DMSO at the concentration of 10 mM. The FLT3-ITD protein was purchased from Invitrogen (PV6191). 10 μL per well of 2.5×FLT3-ITD protein was added to assay plate containing the test compound, centrifuged at 1000 rpm for 1 minute, and then incubated at 25° C. for 10 minutes. Peptide 2 was purchased from GL Biochem (112394) and ATP was purchased from Promega (V9102). The two were added 15 μL per well mixture of 1.67× peptide 2 (final conc. is 3 μM) and ATP (final conc. is 97.2 μM), centrifuged at 1000 rpm for 1 minute, then incubated at 25° C. for 40 minutes. Then added 30 μL of stop buffer (100 mM HEPES pH7.5, 0.015% Brij-35, 0.2% Coating Reagent 3, 50 mM EDTA) to the assay plate and centrifuged at 1000 rpm for 1 minute. the product was determined. Based on the results, the IC50 value of the compound was calculated.

HPK1 [2] = target: T1, HPK1; test: HPK1 degradation assay (western blot, human PBMC); assay type: cell-based; details: for Dmax: read-out: HPK1 Dmax
Procedure: Frozen human PBMC were purchased from Shanghai OribioTech and recovered with culture medium (RMPI1640) prior to use. The cells were then incubated with a variety of concentrations of compound. After incubation, the cells were collected and lysed. The protein concentration was determined by BCA protein assay kit from Thermo (23227). The HPK1 protein level was determined by western blots, using anti-human HPK1 polyclonal antibody from CST (4472S). Proteins were loaded into each well of the pre-casting gels and subjected to electrophoretic separation by SDS-PAGE. The protein resolved by SDS-PAGE were transferred to PVDF, blocked by 5% skim milk, and probed with anti-human HPK1 antibody or β-actin antibody from CST (3700S), using standard western blotting procedure.
Target sequence in this assay (Q92918 whole entry): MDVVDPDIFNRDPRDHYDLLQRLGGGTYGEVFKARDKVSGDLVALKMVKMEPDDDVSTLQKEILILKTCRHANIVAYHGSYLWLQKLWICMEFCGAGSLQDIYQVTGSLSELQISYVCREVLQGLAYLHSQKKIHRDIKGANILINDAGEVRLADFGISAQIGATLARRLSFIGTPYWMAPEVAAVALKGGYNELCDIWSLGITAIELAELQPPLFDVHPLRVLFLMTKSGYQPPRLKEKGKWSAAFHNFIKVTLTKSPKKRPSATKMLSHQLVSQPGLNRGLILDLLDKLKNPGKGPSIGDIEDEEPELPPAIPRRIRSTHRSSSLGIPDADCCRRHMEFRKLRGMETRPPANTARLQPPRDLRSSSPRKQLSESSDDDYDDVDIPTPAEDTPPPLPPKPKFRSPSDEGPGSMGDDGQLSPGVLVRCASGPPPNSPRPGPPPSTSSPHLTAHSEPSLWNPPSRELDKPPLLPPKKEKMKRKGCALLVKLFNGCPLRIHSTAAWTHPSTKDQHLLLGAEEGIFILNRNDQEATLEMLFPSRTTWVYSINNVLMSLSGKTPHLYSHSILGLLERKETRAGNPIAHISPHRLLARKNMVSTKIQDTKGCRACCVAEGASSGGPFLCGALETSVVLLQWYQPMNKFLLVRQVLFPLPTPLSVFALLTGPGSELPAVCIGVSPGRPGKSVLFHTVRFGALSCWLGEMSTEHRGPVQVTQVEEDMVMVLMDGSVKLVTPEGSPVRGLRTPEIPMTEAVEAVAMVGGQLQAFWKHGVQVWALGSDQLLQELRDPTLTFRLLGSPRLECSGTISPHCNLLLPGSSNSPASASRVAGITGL

MEK 1/2 = MEK 1/2 degradation assay (western blot); assay type: cell-based, human; details: protein degradation, MV-411 or IMR32 cells
Procedure: MEK 1/2 Degradation Assay
as §1, with “(IMDM) and IMR32 cells were cultured with medium (MEM)” for “(IMDM)”, “anti-human MEK 1/2 polyclonal” for “anti-human FLT3 monoclonal”, “CST (9122S).” for “CST (3462S).”, “anti-human MEK1/2” for “anti-human FLT3”, “or β-actin” for “or -actin”, “CST (3700S) and COX IV antibody from CST (4850S),” for “CST (3700S),”

Aurora A [3] = target: T2, Aurora A (Homo sapiens (Human), UniProt O14965); test: Aurora A degradation assay (western blot); assay type: cell-based; details: for Dmax: read-out: Aurora A Dmax
T2 sequence (O14965 whole entry): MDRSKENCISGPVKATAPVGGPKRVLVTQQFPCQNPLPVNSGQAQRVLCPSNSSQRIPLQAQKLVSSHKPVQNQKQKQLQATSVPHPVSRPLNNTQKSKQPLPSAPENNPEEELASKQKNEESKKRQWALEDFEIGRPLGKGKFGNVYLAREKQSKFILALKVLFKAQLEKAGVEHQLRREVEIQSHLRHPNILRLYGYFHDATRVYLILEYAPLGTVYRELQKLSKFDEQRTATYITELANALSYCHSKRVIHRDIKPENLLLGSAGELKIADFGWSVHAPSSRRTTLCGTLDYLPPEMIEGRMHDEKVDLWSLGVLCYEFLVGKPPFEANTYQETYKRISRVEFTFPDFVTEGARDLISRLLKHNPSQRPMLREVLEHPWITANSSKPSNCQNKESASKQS
Procedure: Aurora A Degradation Assay
as §1, with “IMR32” for “MV-411”, “cultured with medium (MEM), Huh7 cells were cultured with medium (DMEM) and HL-60 cells were culture” for “cultured”, “AURKA” for “FLT3”, “(14475S).” for “(3462S).”, “β-actin” for “-actin”, “(3700S) or COX IV antibody from CST (4850S),” for “(3700S),”

Aurora A [4] = target: T2, Aurora A; test: Aurora A enzyme inhibition assay; assay type: biochemical
Procedure: Aurora A Enzyme Inhibition Assay
The compound was dissolved in 100% DMSO at the concentration of 10 mM. The Aurora A protein was purchased from Carna (05-101). 10 μL per well of 2.5×Aurora A protein was added to assay plate containing the test compound, centrifuged at 1000 rpm for 1 minute, and then incubated at 25° C. for 10 minutes. Peptide 21 was purchased from GL Biochem (116370) and ATP was purchased from Promega (V9102). The two were added 15 μL per well mixture of 1.67× peptide 21 (final conc. is 3 μM) and ATP (final conc. is 14.58 μM), centrifuged at 1000 rpm for 1 minute, then incubated at 25° C. for 40 minutes. Then added 30 μL of stop buffer (100 mM HEPES pH7.5, 0.015% Brij-35, 0.2% Coating Reagent 3, 50 mM EDTA) to the assay plate and centrifuged at 1000 rpm for 1 minute. the product was determined. Based on the results, the IC50 value of the compound was calculated.

[5] = enzyme inhibition, read-out: FLT3-ITD IC50
[6] = protein degradation, human PBMC, read-out: HPK1 DC50
[7] = read-out: MEK 1/2 DC50 (nM)/Dmax (%), class symbol
[8] = protein degradation, IMR32, Huh7 or HL-60 cells, read-out: Aurora A DC50
[9] = protein degradation, class symbol, read-out: FLT3 DC50 (nM)/Dmax (%)
[10] = protein degradation, human PBMC, class symbol, read-out: HPK1 DC50 (nM)/Dmax (%)
[11] = protein degradation, IMR32, Huh7 or HL-60 cells, class symbol, read-out: Aurora A DC50 (nM)/Dmax (%)
[12] = protein degradation, human PBMC

O=C1CCC(N2C(=O)c3cc(F)c(N4CCC(CCN5CCCN(c6cccc(-c7cnc8[nH]cc(C9CC9)c8c7Cl)c6)C5=O)CC4)cc3C2=O)C(=O)N1 (stereo not shown) [Example 9, 5-(4-(2-(3-(3-(4-chloro-3-cyclopropyl-1H-pyrrolo [2,3-b]pyridin-5-yl)phenyl)-2-oxotetrahydropyrimidin-1 (2H)-yl)ethyl)piperidin-1-yl)-2-(2,6-dioxopiperidin-3-yl)-6-fluoroisoindoline-1,3-dione]
FLT3 Dmax (FLT3; protein degradation): 60% | DC50 (FLT3; read-out: FLT3 DC50, protein degradation): 100 nM | pIC50 (HPK1 [1]): 7.20 | pIC50 (FLT3-ITD; [5]): 7.44 | DC50 (HPK1 [2]; [6]): 294 nM | Dmax (HPK1 [2]): 50% | DC50 (MEK 1/2; [7]): > 10000 nM | DC50 (Aurora A [3]; [8]): > 1000 nM | Dmax (Aurora A [3]): 50% | pIC50 (Aurora A [4]): 6.88

CCc1c[nH]c2ncc(-c3cccc(N4CCCN(CCN5CC=C(c6ccc7c(c6)C(=O)N(C6CCC(=O)NC6=O)C7=O)CC5)C4=O)c3)c(Cl)c12 (stereo not shown) [Example 5, 5-(1-(2-(3-(3-(4-chloro-3-ethyl-1H-pyrrolo [2,3-b]pyridin-5-yl)phenyl)-2-oxotetrahydropyrimidin-1 (2H)-yl)ethyl)-1,2,3,6-tetrahydropyridin-4-yl)-2-(2,6-dioxopiperidin-3-yl) isoindoline-1,3-dione]
DC50 (FLT3; [9]): > 10000 nM | pIC50 (HPK1 [1]): 7.87 | pIC50 (FLT3-ITD; [5]): 7.56 | DC50 (HPK1 [2]; [10]): > 10000 nM | MEK 1/2 Dmax (MEK 1/2): 65% | DC50 (MEK 1/2; read-out: MEK 1/2 DC50): 2.1 nM | DC50 (Aurora A [3]; [11]): > 10000 nM | pIC50 (Aurora A [4]): 7.66

CCc1c[nH]c2ncc(-c3cccc(N4CCCN(CCN5CC(c6ccc7c(c6)C(=O)N(C6CCC(=O)NC6=O)C7=O)C5)C4=O)c3)c(Cl)c12 (stereo not shown) [Example 6, 5-(1-(2-(3-(3-(4-chloro-3-ethyl-1H-pyrrolo [2,3-b]pyridin-5-yl)phenyl)-2-oxotetra hydropyrimidin-1 (2H)-yl)ethyl)azetidin-3-yl)-2-(2,6-dioxopiperidin-3-yl) isoindo line-1,3-dione]
DC50 (FLT3; [9]): > 10000 nM | pIC50 (HPK1 [1]): 8.51 | pIC50 (FLT3-ITD; [5]): 7.74 | DC50 (HPK1 [2]; [10]): > 10000 nM | MEK 1/2 Dmax (MEK 1/2): 32% | DC50 (MEK 1/2; read-out: MEK 1/2 DC50): < 1 nM | DC50 (Aurora A [3]; [11]): > 10000 nM | pIC50 (Aurora A [4]): 8.00

CCc1c[nH]c2ncc(-c3cccc(N4CCCN(CC5CCN(c6ccc7c(c6)C(=O)N(C6CCC(=O)N(C)C6=O)C7=O)CC5)C4=O)c3)c(Cl)c12 (stereo not shown) [Example 10, 5-(4-((3-(3-(4-chloro-3-ethyl-1H-pyrrolo [2,3-b]pyridin-5-yl)phenyl)-2-oxotetrahydropyrimidin-1 (2H)-yl)methyl)piperidin-1-yl)-2-(1-methyl-2,6-dioxopiperidin-3-yl) isoindoline-1,3-dione]
pIC50 (HPK1 [1]): 7.51 | pIC50 (FLT3-ITD; [5]): 8.13 | pIC50 (Aurora A [4]): 7.46

O=C1CCC(N2Cc3cc(N4CCC(CN5CCCN(c6cccc(-c7cnc8[nH]cc(C9CC9)c8c7Cl)c6)C5=O)CC4)ccc3C2=O)C(=O)N1 (stereo not shown) [Example 12, 3-[5-(4-{[3-(3-{4-chloro-3-cyclopropyl-1H-pyrrolo [2,3-b]pyridin-3-yl}phenyl)-2-oxo-1,3-diazinan-1-yl]methyl}piperidin-1-yl)-1-oxo-3H-isoindol-2-yl]piperidine-2,6-dione]
pIC50 (HPK1 [1]): 7.46

O=C1CCC(N2Cc3cc(N4CCC(CN5CCCN(c6cccc(-c7cnc8[nH]cc(CC(F)F)c8c7Cl)c6)C5=O)CC4)ccc3C2=O)C(=O)N1 (stereo not shown) [Example 14]
FLT3 Dmax (FLT3; protein degradation): 95% | DC50 (FLT3; protein degradation, read-out: FLT3 DC50): 11 nM | pIC50 (HPK1 [1]): 7.59 | DC50 (HPK1 [2]; [6]): 100 nM | Dmax (HPK1 [2]; [12]): 90% | MEK 1/2 Dmax (MEK 1/2): 90% | DC50 (MEK 1/2; read-out: MEK 1/2 DC50): < 100 nM | DC50 (Aurora A [3]; [8]): < 20 nM | Dmax (Aurora A [3]; protein degradation, IMR32, Huh7 or HL-60 cells): 95%

CCc1c[nH]c2ncc(-c3cccc(N4CCCN(CCN5CCC(c6ccc7c(c6)C(=O)N(C6CCC(=O)NC6=O)C7=O)CC5)C4=O)c3)c(Cl)c12 (stereo not shown) [Example 3, 5-(1-(2-(3-(3-(4-chloro-3-ethyl-1H-pyrrolo [2,3-b]pyridin-5-yl)phenyl)-2-oxotetrahydropyrimidin-1 (2H)-yl)ethyl)piperidin-4-yl)-2-(2,6-dioxopiperidin-3-yl) isoindoline-1,3-dione]
pIC50 (HPK1 [1]): 8.24 | pIC50 (FLT3-ITD; [5]): 7.87 | pIC50 (Aurora A [4]): 7.29

CCc1c[nH]c2ncc(-c3cccc(N4CCCN(CCN5CC(c6ccc7c(c6)CN(C6CCC(=O)NC6=O)C7=O)C5)C4=O)c3)c(Cl)c12 (stereo not shown) [Example 2]
DC50 (FLT3; read-out: FLT3 DC50 (nM)/Dmax (%), protein degradation, class symbol): > 10000 nM | pIC50 (FLT3-ITD): 8.33 | DC50 (HPK1 [2]; read-out: HPK1 DC50, protein degradation, human PBMC): 3 nM | Dmax (HPK1 [2]): 80% | DC50 (MEK 1/2; [7]): > 10000 nM | DC50 (Aurora A [3]; read-out: Aurora A DC50 (nM)/Dmax (%), protein degradation, IMR32, Huh7 or HL-60 cells, class symbol): > 10000 nM

CCc1c[nH]c2ncc(-c3cccc(N4CCCN(CCN5CC(c6ccc7c(c6)C(=O)N(C6CCC(=O)NC6=O)C7)C5)C4=O)c3)c(Cl)c12 (stereo not shown) [Example 1]
DC50 (FLT3; [9]): > 10000 nM | pIC50 (FLT3-ITD; [5]): 8.40 | DC50 (HPK1 [2]; [6]): 173 nM | Dmax (HPK1 [2]; [12]): 75% | MEK 1/2 Dmax (MEK 1/2): 20% | DC50 (MEK 1/2; read-out: MEK 1/2 DC50): 68 nM | DC50 (Aurora A [3]; [11]): > 10000 nM

— patent US20250368640A1 (BIOFRONT LTD, priority 2022, published 2025)
